Experimental data from patent US12723063B2, “GIPR-agonist compounds” (Eli Lilly and Company, priority 2019, dated 2026).
pKi: −log10 of the molar value. *1 amine or outer side, *2 acyl side, *3 side chain or, on linkers, in order; H or OH if unused. Where a SMILES comes first, the peptide text is derived from it. Side-chain parts run from the residue outwards. [ ]: non-standard residue; d: D form. The star is where a group is joined. C20 diacid = O=C(O)CCCCCCCCCCCCCCCCCCC(=O)*; αMePhe(2-F) = C[C@](N)(Cc1ccccc1F)C(=O)O; γGlu = O=C(O)[C@H](CCC(=O)[*:2])N[*:1]; 4Pal = N[C@@H](Cc1ccncc1)C(=O)O; αMeL = CC(C)C[C@](C)(N)C(=O)O; Orn = NCCC[C@H](N)C(=O)O; AEEA = NCCOCCOCC(=O)O; Aib = CC(C)(N)C(=O)O

How the values were obtained:
[1] = Pharmacokinetics in male cynomolgus monkeys, single subcutaneous administration; format: in vivo, cynomolgus monkey; conditions: 50 nmol/kg single SC, mean n = 2; for CL/F / Tmax / half-life: cynomolgus monkey, plasma
Experimental: The pharmacokinetics of select Examples are evaluated following a single subcutaneous administration of 50 nmol/kg to male cynomolgus monkeys. Blood samples are collected over 504 hours and resulting individual plasma concentrations are used to calculate pharmacokinetic parameters. Peptide plasma (K3 EDTA) concentrations are determined using a qualified LC/MS method that measured the intact mass of the compound. Each peptide and an analog as an internal standard are extracted from 100% cynomolgus monkey plasma using a protein precipitation method. Instruments are combined for LC/MS detection.

[2] = molecular target: T1, human GcgR (Homo sapiens, UniProt P47871); experiment: [125I]-Glucagon binding, SPA with WGA beads, 0.1% bacitracin; conditions: geometric mean, read-out: hGcgR Ki
T1 construct: expressed in transfected cells; crude membranes
T1 sequence (P47871 26-477): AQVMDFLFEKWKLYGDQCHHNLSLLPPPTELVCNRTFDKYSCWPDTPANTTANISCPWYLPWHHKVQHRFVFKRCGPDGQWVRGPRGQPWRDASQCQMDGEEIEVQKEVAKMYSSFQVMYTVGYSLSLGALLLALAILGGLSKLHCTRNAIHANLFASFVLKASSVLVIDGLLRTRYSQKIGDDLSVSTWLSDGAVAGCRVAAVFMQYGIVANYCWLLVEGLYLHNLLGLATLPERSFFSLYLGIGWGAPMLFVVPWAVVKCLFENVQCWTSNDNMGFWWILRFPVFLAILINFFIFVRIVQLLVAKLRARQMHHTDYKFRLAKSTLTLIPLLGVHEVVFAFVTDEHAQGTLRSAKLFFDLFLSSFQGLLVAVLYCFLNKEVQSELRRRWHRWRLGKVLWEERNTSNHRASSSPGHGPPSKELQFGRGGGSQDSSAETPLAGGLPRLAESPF
Summary of the method: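 SPA competition binding with WGA beads on crude membranes from HEK293 cells stably expressing hGcgR. Buffer: 25 mM HEPES pH 7.4, 2.5 mM CaCl2, 1 mM MgCl2, 0.1% bacitracin, 0.003% Tween-20; 10-point 3-fold dilutions, NSB with 1 μM Gcg.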

[3] = test system: CD4+ T cells (CD8+ T cell-depleted PBMCs); experiment: CD4+ T cell proliferation assay (immunogenicity assessment); format: cell-based, human; conditions: 0.33 μM, 7 days, 10 healthy donors; positive response CDI>2.5
Experimental: Protein therapeutics that induce less than 30% positive response in the CD4+ T cell proliferation assay are associated with a low risk of immunogenicity. Briefly, to assess the propensity for a clinical immunogenic response to the compounds of Examples 1, 2, 3, 5, and 6, CD8+ T cell-depleted peripheral blood mononuclear cells (PBMCs) are prepared and labeled with carboxyfluorescein diacetate succinimidyl ester (CFSE; Invitrogen) from a cohort of 10 healthy donors with diverse human leukocyte antigen (HLA) class II haplotypes. Each donor is tested in triplicate with 2.0 mL media control, keyhole limpet hemocyanin (KLH: 0.33 μM), and the compounds of Examples 1, 2, 3, 5, and 6 (0.33 μM). Cultures are incubated for 7 days at 37° C. with 5% CO2. On day 7, samples are analyzed by flow cytometry using a BD LSR II Fortessa (Becton Dickinson; Franklin Lakes, NJ), equipped with a high throughput sampler (HTS). Data is analyzed using FlowJo® Software (FlowJo, LLC/TreeStar; Ashland, OR).
• Cell Division Index (“CDI”): proportion of divided CD4+ T cells to the total number of CD4+ T cells in stimulated versus unstimulated samples.

[4] = molecular target: T2, human GLP-1R (Homo sapiens, UniProt P43220); experiment: [125I]-GLP-1 binding, SPA with WGA beads, 0.1% bacitracin; conditions: geometric mean, read-out: hGLP1R Ki
T2 construct: expressed in transfected cells; crude membranes
T2 sequence (P43220 24-463): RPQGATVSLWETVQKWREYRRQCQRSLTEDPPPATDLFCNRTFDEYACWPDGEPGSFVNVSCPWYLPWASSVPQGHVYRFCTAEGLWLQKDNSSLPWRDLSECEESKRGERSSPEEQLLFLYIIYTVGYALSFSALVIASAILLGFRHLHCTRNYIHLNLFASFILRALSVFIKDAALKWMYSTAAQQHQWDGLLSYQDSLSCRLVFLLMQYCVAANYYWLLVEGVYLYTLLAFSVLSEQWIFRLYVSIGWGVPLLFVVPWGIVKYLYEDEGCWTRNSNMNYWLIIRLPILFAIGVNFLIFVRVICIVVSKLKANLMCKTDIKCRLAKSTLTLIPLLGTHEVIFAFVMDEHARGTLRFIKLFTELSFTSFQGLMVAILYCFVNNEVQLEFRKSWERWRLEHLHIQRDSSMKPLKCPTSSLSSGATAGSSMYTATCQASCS
Summary of the method: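 Binding buffer was 25 mM HEPES pH 7.4 with 2.5 mM CaCl2, 1 mM MgCl2, 0.1% (w/v) bacitracin, 0.003% Tween-20 and EDTA-free protease inhibitors. Four-parameter regression gave IC50, converted to Ki (geometric mean, SEM, n independent days).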

| SMILES | AUCInf/Dose [1] [hr*kg*nmol/L/nmol] | Cmax/Dose [1] [kg*nmol/L/nmol] | CL/F [1] [mL/day/kg] | Tmax [1] [h] | half-life [1] [h] | pKi [2] | % Donor Response (n = 10) [3] [%] | pKi [4] |
| --- | --- | --- | --- | --- | --- | --- | --- | --- |
| CC[C@H](C)[C@H](NC(=O)[C@H](CO)NC(=O)[C@H](Cc1ccc(O)cc1)NC(=O)[C@H](CC(=O)O)NC(=O)[C@H](CO)NC(=O)[C@@H](NC(=O)[C@H](Cc1ccccc1)NC(=O)[C@@H](NC(=O)CNC(=O)[C@H](CCC(=O)O)NC(=O)[C@@H](C)NC(=O)[C@@H](N)Cc1ccc(O)cc1)[C@@H](C)O)[C@@H](C)CC)C(=O)N[C@@H](CC(C)C)C(=O)N[C@@H](CC(C)C)C(=O)N[C@@H](CC(=O)O)C(=O)N[C@@H](CCCCN)C(=O)N[C@@H](CCCCNC(=O)COCCOCCNC(=O)COCCOCCNC(=O)CC[C@H](NC(=O)CCCCCCCCCCCCCCCCCCC(=O)O)C(=O)O)C(=O)N[C@@H](C)C(=O)N[C@@H](CCC(N)=O)C(=O)NC(C)(C)C(=O)N[C@@H](CC(=O)O)C(=O)N[C@@H](Cc1ccccc1)C(=O)N[C@H](C(=O)N[C@@H](CC(N)=O)C(=O)N[C@@H](Cc1c[nH]c2ccccc12)C(=O)N[C@@H](CC(C)C)C(=O)N[C@@H](CC(C)C)C(=O)N[C@@H](C)C(=O)N[C@@H](CCC(N)=O)C(=O)NCC(=O)N1CCC[C@H]1C(=O)N[C@@H](CO)C(=O)N[C@@H](CO)C(=O)NCC(=O)N[C@@H](C)C(=O)N1CCC[C@H]1C(=O)N1CCC[C@H]1C(=O)N1CCC[C@H]1C(=O)N[C@@H](CO)C(N)=O)C(C)C [Example 1] | 786 | 7.20 | 30.5 | 24 | 71.1 | 6.64 | 0 | 7.24 |
| CC[C@H](C)[C@H](NC(=O)[C@H](Cc1ccccc1)NC(=O)[C@@H](NC(=O)CNC(=O)[C@H](CCC(=O)O)NC(=O)C(C)(C)NC(=O)[C@@H](N)Cc1ccc(O)cc1)[C@@H](C)O)C(=O)N[C@@H](CO)C(=O)N[C@@H](CC(=O)O)C(=O)N[C@@H](Cc1ccc(O)cc1)C(=O)N[C@@H](CO)C(=O)N[C@H](C(=O)N[C@@](C)(CC(C)C)C(=O)N[C@@H](CC(C)C)C(=O)N[C@@H](CC(=O)O)C(=O)N[C@@H](CCCN)C(=O)N[C@@H](CCCCNC(=O)COCCOCCNC(=O)COCCOCCNC(=O)CC[C@H](NC(=O)CCCCCCCCCCCCCCCCCCC(=O)O)C(=O)O)C(=O)N[C@@H](Cc1c[nH]cn1)C(=O)N[C@@H](CCC(N)=O)C(=O)NC(C)(C)C(=O)N[C@@H](CC(=O)O)C(=O)N[C@@H](Cc1ccccc1)C(=O)N[C@H](C(=O)N[C@@H](CCC(=O)O)C(=O)N[C@@H](Cc1ccncc1)C(=O)N[C@@H](CC(C)C)C(=O)N[C@@H](CC(C)C)C(=O)N[C@@H](CCC(=O)O)C(=O)N[C@@H](C)C(=O)NCC(=O)N1CCC[C@H]1C(=O)N[C@@H](CO)C(=O)N[C@@H](CO)C(=O)NCC(=O)N[C@@H](C)C(=O)N1CCC[C@H]1C(=O)N1CCC[C@H]1C(=O)N1CCC[C@H]1C(=O)N[C@@H](CO)C(N)=O)C(C)C)[C@@H](C)CC [Example 4] | 1387 | 8.71 | 17.3 | 6 | 124 | 6.37 |  | 6.37 |
| CC[C@H](C)[C@H](NC(=O)[C@H](CCCN)NC(=O)[C@H](CC(=O)O)NC(=O)[C@H](CC(C)C)NC(=O)[C@](C)(CC(C)C)NC(=O)[C@@H](NC(=O)[C@H](CO)NC(=O)[C@H](Cc1ccc(O)cc1)NC(=O)[C@H](CC(=O)O)NC(=O)[C@H](CO)NC(=O)[C@@H](NC(=O)[C@H](Cc1ccccc1)NC(=O)[C@@H](NC(=O)CNC(=O)[C@H](CCC(=O)O)NC(=O)C(C)(C)NC(=O)[C@@H](N)Cc1ccc(O)cc1)[C@@H](C)O)[C@@H](C)CC)[C@@H](C)CC)C(=O)N[C@@H](Cc1c[nH]cn1)C(=O)N[C@@H](CCC(N)=O)C(=O)NC(C)(C)C(=O)N[C@@H](CCC(=O)O)C(=O)N[C@@H](Cc1ccccc1)C(=O)N[C@H](C(=O)N[C@H](CCC(=O)O)C(=O)N[C@@H](Cc1ccc(O)cc1)C(=O)N[C@@H](CCCCNC(=O)COCCOCCNC(=O)COCCOCCNC(=O)CC[C@H](NC(=O)CCCCCCCCCCCCCCCCC(=O)O)C(=O)O)C(=O)N[C@@H](CC(C)C)C(=O)N[C@@H](CCC(=O)O)C(=O)NCC(=O)NCC(=O)N1CCC[C@H]1C(=O)N[C@@H](CO)C(=O)N[C@@H](CO)C(=O)NCC(=O)N[C@@H](C)C(=O)N1CCC[C@H]1C(=O)N1CCC[C@H]1C(=O)N1CCC[C@H]1C(=O)N[C@@H](CO)C(N)=O)C(C)C [Example 7] | 1603 | 10.1 | 15.1 | 9 | 109 | < 6.02 |  | < 6.04 |
| CC[C@H](C)[C@H](NC(=O)[C@H](CO)NC(=O)[C@H](Cc1ccc(O)cc1)NC(=O)[C@H](CC(=O)O)NC(=O)[C@H](CO)NC(=O)[C@@H](NC(=O)[C@](C)(Cc1ccccc1F)NC(=O)[C@@H](NC(=O)CNC(=O)[C@H](CCC(=O)O)NC(=O)C(C)(C)NC(=O)[C@@H](N)Cc1ccc(O)cc1)[C@@H](C)O)[C@@H](C)CC)C(=O)N[C@@H](CC(C)C)C(=O)N[C@@H](CC(C)C)C(=O)N[C@@H](CC(=O)O)C(=O)N[C@@H](CCCCN)C(=O)N[C@H](C(=O)N[C@@H](Cc1c[nH]cn1)C(=O)N[C@@H](CCC(N)=O)C(=O)NC(C)(C)C(=O)N[C@@H](CC(=O)O)C(=O)N[C@@H](Cc1ccccc1)C(=O)N[C@H](C(=O)N[C@@H](CCC(=O)O)C(=O)N[C@@H](Cc1ccncc1)C(=O)N[C@@H](CCCCNC(=O)COCCOCCNC(=O)COCCOCCNC(=O)CC[C@H](NC(=O)CCCCCCCCCCCCCCCCCCC(=O)O)C(=O)O)C(=O)N[C@@H](CC(C)C)C(=O)N[C@@H](CCC(=O)O)C(=O)N[C@@H](CCC(N)=O)C(=O)NCC(=O)N1CCC[C@H]1C(=O)N[C@@H](CO)C(=O)N[C@@H](CO)C(=O)NCC(=O)N[C@@H](C)C(=O)N1CCC[C@H]1C(=O)N1CCC[C@H]1C(=O)N1CCC[C@H]1C(=O)N[C@@H](CO)C(N)=O)C(C)C)[C@@H](C)CC [Example 121] (H-Y[Aib]EGT[αMePhe(2-F)]ISDYSILLDKIHQ[Aib]DFVE[4Pal]K([AEEA-AEEA-γGlu-C20 diacid])LEQGPSSGAPPPS-NH2) |  |  |  |  |  | 7.02 |  | < 6.04 |
| CC[C@H](C)[C@H](NC(=O)[C@H](CCCN)NC(=O)[C@H](CC(=O)O)NC(=O)[C@H](CC(C)C)NC(=O)[C@](C)(CC(C)C)NC(=O)[C@@H](NC(=O)[C@H](CO)NC(=O)[C@H](Cc1ccc(O)cc1)NC(=O)[C@H](CC(=O)O)NC(=O)[C@H](CO)NC(=O)[C@@H](NC(=O)[C@H](Cc1ccccc1)NC(=O)[C@@H](NC(=O)CNC(=O)[C@H](CCC(=O)O)NC(=O)C(C)(C)NC(=O)[C@@H](N)Cc1ccc(O)cc1)[C@@H](C)O)[C@@H](C)CC)[C@@H](C)CC)C(=O)N[C@@H](Cc1c[nH]cn1)C(=O)N[C@@H](CCC(N)=O)C(=O)NC(C)(C)C(=O)N[C@@H](CCC(=O)O)C(=O)N[C@@H](Cc1ccccc1)C(=O)N[C@H](C(=O)N[C@@H](CCC(=O)O)C(=O)N[C@@H](Cc1ccncc1)C(=O)N[C@@H](CCCCNC(=O)COCCOCCNC(=O)COCCOCCNC(=O)CC[C@H](NC(=O)CCCCCCCCCCCCCCCCCCC(=O)O)C(=O)O)C(=O)N[C@@H](CC(C)C)C(=O)N[C@@H](CCC(=O)O)C(=O)N[C@@H](C)C(=O)NCC(=O)N1CCC[C@H]1C(=O)N[C@@H](CO)C(=O)N[C@@H](CO)C(=O)NCC(=O)N[C@@H](C)C(=O)N1CCC[C@H]1C(=O)N1CCC[C@H]1C(=O)N1CCC[C@H]1C(=O)N[C@@H](CO)C(N)=O)C(C)C [Example 122] (H-Y[Aib]EGTFISDYSI[αMeL]LD[Orn]IHQ[Aib]EFVE[4Pal]K([AEEA-AEEA-γGlu-C20 diacid])LEAGPSSGAPPPS-NH2) |  |  |  |  |  | 6.02 |  | < 6.04 |
